{
  "source": "paper PMC12362764",
  "about": "“Novel Cyano‐Artemisinin Dimer ZQJ29 Targets PARP1 to Induce Ferroptosis in Pancreatic Cancer Treatment” (Advanced Science, 2025)",
  "key": {"PARP1": {"molecular_target": "PARP1 (Homo sapiens, UniProt P09874)", "sequence (P09874 whole entry)": "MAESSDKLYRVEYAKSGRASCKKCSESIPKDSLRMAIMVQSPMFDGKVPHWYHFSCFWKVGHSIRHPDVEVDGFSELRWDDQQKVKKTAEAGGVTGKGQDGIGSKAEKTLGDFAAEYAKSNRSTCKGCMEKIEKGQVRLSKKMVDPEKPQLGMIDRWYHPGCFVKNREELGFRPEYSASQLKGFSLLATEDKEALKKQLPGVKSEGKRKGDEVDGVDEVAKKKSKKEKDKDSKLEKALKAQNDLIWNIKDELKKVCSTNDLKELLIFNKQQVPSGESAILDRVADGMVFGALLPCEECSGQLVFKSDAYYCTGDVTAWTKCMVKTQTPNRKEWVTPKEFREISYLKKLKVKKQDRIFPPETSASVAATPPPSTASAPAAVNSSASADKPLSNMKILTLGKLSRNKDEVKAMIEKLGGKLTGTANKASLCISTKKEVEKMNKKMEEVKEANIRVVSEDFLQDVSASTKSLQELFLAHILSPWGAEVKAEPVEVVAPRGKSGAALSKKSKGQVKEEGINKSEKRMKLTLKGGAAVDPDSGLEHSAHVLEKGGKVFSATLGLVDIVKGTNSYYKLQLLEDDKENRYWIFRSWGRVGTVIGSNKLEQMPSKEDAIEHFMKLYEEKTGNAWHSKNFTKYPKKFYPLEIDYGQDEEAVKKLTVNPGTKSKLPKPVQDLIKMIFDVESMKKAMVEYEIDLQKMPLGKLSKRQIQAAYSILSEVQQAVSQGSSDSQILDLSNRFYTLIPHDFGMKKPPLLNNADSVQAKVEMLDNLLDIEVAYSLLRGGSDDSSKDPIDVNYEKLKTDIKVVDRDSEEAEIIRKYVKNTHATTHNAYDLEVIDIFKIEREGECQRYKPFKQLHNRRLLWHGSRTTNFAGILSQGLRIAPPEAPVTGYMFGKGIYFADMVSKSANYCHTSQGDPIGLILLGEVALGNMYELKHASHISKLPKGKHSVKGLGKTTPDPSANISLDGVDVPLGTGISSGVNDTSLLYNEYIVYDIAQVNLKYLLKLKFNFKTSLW", "assay": "DARTS", "type": "binding", "parameters": "Total cellular proteins from PANC‐1 and KP4 were extracted using M‐PER lysis buffer; endogenous in cells; host or cells: PANC-1 and KP4 pancreatic cancer cells", "conditions": "enzyme-lysate ratio 1:3000, higher ZQJ29 concentrations", "experimental": "Total cellular proteins from PANC‐1 and KP4 were extracted using M‐PER lysis buffer (Thermo Fisher, USA). Aliquots of 50 µg of protein were taken from the lysate and placed into each 1.5 mL tube. Different concentrations of ZQJ29 were added to some tubes, while control tubes received an equal amount of DMSO. The mixtures were incubated at room temperature for 1 h. After incubation, Pronase was added to the mixture of cellular proteins at a ratio of Pronase: protein = 1: 3000 for digestion at room temperature for 15 min. Following digestion, 5 × loading buffer was added, and the samples were heated at 100 °C for 10 min before being used for western blot analysis."}, "[1]": {"test_system": "PARP1, TP53, SLC7A11, and GPX4", "assay": "Western blot of PARP1, TP53, SLC7A11 and GPX4 in cells", "type": "cell-based", "conditions": "PANC-1 and KP4 cell lines, dose-dependent", "experimental": "For western blotting analysis, ZQJ29‐treated cells were lysed with RIPA Lysis Buffer (Yeasen, Shanghai, China) containing protease and phosphatase inhibitors (Yeasen, Shanghai, China) on ice. The cell lysates were quantified using the BCA Protein Assay Kit (Beyotime, Shanghai, China). Samples were subjected to SDS‐PAGE and transferred to PVDF membranes (Beyotime, Shanghai, China). The membranes were blocked with 5% nonfat milk in TBST (Buffered Saline with 0.1% Tween 20) for 1 h, followed by overnight incubation at 4 °C with primary antibodies. After washing the membranes three times with TBST, they were incubated with the appropriate secondary antibodies for 2 h at room temperature. Following another three times with TBST, the bands on the membranes were detected using the ECL‐Plus Western Blotting Detection System (Yeasen, Shanghai, China)."}, "HeLa": {"test_system": "HeLa", "assay": "CCK-8 cytotoxicity assay, HeLa", "type": "cell-based", "conditions": "Homo sapiens, 72 h", "experimental": "(§1) Cell viability was evaluated using the Cell Counting Kit‐8 (Beyotime, Shanghai, China) assay. Cells were seeded in 96‐well plates at a density of 2×10^3 cells to allow for attachment. After treatment with ZQJ29 (0.001, 0.01, 0.1, 10, and 25 µM) for 24, 48, and 72 h, 10 µL of CCK‐8 solution was added to each well and incubated for 1 h. The optical density values were then measured at 450 nm using a multifunctional enzyme‐linked immunosorbent assay reader (Tecan, Spark, Switzerland)."}, "HPDE6-C7": {"test_system": "HPDE6-C7", "assay": "CCK-8 cytotoxicity assay, HPDE6-C7 (normal cell line)", "type": "cell-based", "conditions": "HPDE6c7, 72 h", "experimental": "as §1"}, "THLE-2": {"test_system": "THLE-2", "assay": "CCK-8 cytotoxicity assay, THLE-2 (normal cell line)", "type": "cell-based", "conditions": "Homo sapiens, 72 h", "experimental": "as §1"}, "JHH7": {"test_system": "JHH7", "assay": "CCK-8 cytotoxicity assay, JHH7", "type": "cell-based", "conditions": "JHH7, 72 h", "experimental": "as §1"}, "HCT116": {"test_system": "HCT116", "assay": "CCK-8 cytotoxicity assay, HCT116", "type": "cell-based", "conditions": "Homo sapiens, HCT-116; HCT116, 72 h", "experimental": "as §1"}, "KP4": {"test_system": "KP4", "assay": "CCK-8 cytotoxicity assay, KP4", "type": "cell-based", "experimental": "as §1"}, "PANC-1": {"test_system": "PANC-1", "assay": "Label-free proteomics", "type": "cell-based", "conditions": "PANC-1, 5 µM ZQJ29 vs DMSO, 24 h", "experimental": "PANC‐1 cells were inoculated into 6‐well plates at ≈2 × 10^5 cells per well and grown for 24 h. After this period, the cells were treated with 5 µM ZQJ29 and an equal volume of solvent (DMSO) for an additional 24 h. Following treatment, the cells were removed from the incubator, and the medium was aspirated and discarded. The cells were washed twice with pre‐cooled PBS, which was then discarded. Next, 30 µL of RIPA lysis buffer containing PMSF (Yeasen, Shanghai, China) was added, and the cells were scraped off quickly using a cell scraper. The cell suspension was collected in 1.5 mL EP tubes and placed on ice. Cells were homogenized using ultrasound (3s × 15 times at 4s intervals), and the mixture was kept on ice for 10–15 min until the foam subsided. The centrifuge was pre‐cooled to 4 °C and centrifuged at 12 000 rpm for 15 min. The supernatant was collected to obtain the protein.\nFor each group of 3 samples, the protein concentration was determined by the BCA Protein Assay Kit (Beyotime, Shanghai, China). A total of 100 µg of protein was aspirated from each group. Five times the volume of acetone/ethanol/formic acid (50:50:0.1, v/v) was added, and the mixture was thoroughly mixed before allowing the protein to precipitate overnight at −20 °C. […] Finally, the sample was analyzed using instrumental LC‐MS (Agilent, USA)."}},
  "data": [
    {"smiles": "CC1CCC2C(C)C(OCCN(C#N)CCOC3OC4OC5(C)CCC6C(C)CCC(C3C)C46OO5)OC3OC4(C)CCC1C32OO4", "note": "(stereo not drawn) [ZQJ29]", "values": [
      {"measurement": "PARP1 accumulation after pronase digestion", "setting": "PARP1", "value": "increased"},
      {"measurement": "expression of PARP1, SLC7A11 and GPX4", "setting": "[1]", "value": "downregulated"},
      {"measurement": "expression of TP53", "setting": "[1]", "value": "upregulated"},
      {"measurement": "IC50", "setting": "HeLa", "value": "1280 ± 289", "unit": "nM"},
      {"measurement": "IC50", "setting": "HPDE6-C7", "value": "> 10000", "unit": "nM"},
      {"measurement": "IC50", "setting": "THLE-2", "value": "> 10000", "unit": "nM"},
      {"measurement": "IC50", "setting": "JHH7", "value": "791 ± 305", "unit": "nM"},
      {"measurement": "IC50", "setting": "HCT116", "value": "1020 ± 500", "unit": "nM"},
      {"measurement": "IC50", "setting": "KP4; Homo sapiens, KP-4, KP4, as printed in the text", "value": "885 ± 106", "unit": "nM"},
      {"measurement": "enhanced cytotoxic effect compared to OXA and DHA", "setting": "KP4; KP4 cells", "value": 10, "unit": "fold"},
      {"measurement": "potency of antitumor over DHA", "setting": "KP4; discussion, cell line not stated", "value": 10, "unit": "fold"},
      {"measurement": "PARP1 protein level (proteomics)", "setting": "PANC-1", "value": "prominently down‐regulated"}
    ]}
  ]
}
